Source: patent US12486239B2, “Benzotriazole compound, light absorber, and resin composition” (MITSUI CHEMICALS, INC., priority 2019, dated 2025)

Legend:
Type in all cases: physicochemical
[1] = Solubility to various organic solvents; conditions: room temperature; for Solubility to various organic solvents: PGMEA / Solubility to various organic solvents: Ethyl acetate / Solubility to various organic solvents: MEK / Solubility to various organic solvents: MMA / Solubility to various organic solvents: Toluene: Table 1; for Solubility to various organic solvents: MEK / Solubility: MEK: methyl ethyl ketone; for Solubility to various organic solvents: MMA / Solubility: MMA: methyl methacrylate
Protocol: As Comparative Example 1, the solubility of TINUVIN326 (manufactured by BASF Japan Ltd.) represented by the following Formula (TI) was measured by the following method.
(§1) To 0.5 g of the benzotriazole compound, the various organic solvents shown in Table 1 were added such that the total mass was about 10 g, the mixture was irradiated with ultrasonic waves for about 30 minutes, and thereafter stirred at room temperature for 2 hours to prepare a dispersion of about 10% by mass.
The dispersion was filtered through a membrane filter (0.2 μm), and the obtained residue was dried in a dryer at 60° C. for 1 hour, and then the mass of the residue was measured.
The solubility of the benzotriazole compound to the solvent was expressed by the following formula. Solubility (% by mass)=(W0−W1)/W0
W0 is the mass of the benzotriazole compound before the treatment, and W1 is the mass of the residue after drying (that is, the dissolution residue of the benzotriazole compound). In a case in which no residue remained on the filter, the solubility was determined as 5% by mass or more.
The solubility of the benzotriazole compound obtained in each Example and Comparative Example was measured by the following method.
as §1, with “Table 6” for “Table 1”

[2] = Heat resistance: TG5% decomposition temperature; conditions: nitrogen atmosphere, heating rate 10° C./min; for T-5% by mass: Table 2; for Decomposition temperature (Tg-5% by mass): Table 6
Protocol: In each Example and Comparative Example, the decomposition temperature was measured by the following method.
Using a thermal analyzer Rigaku ThermoPlus Evo TG8120, the TG5% decomposition temperature (T-5% by mass) was measured under a nitrogen atmosphere at a heating rate of 10° C./min and a temperature range of from room temperature to 500° C.
The higher the T-5% by mass, the higher the heat resistance.
The decomposition temperature of the benzotriazole compound obtained in each Example and Comparative Example was measured by the following method.

[3] = Maximum absorption wavelength and gram absorption coefficient, toluene solution 0.01 g/L (first embodiment); conditions: optical path length 10 mm
Protocol: (§2) The maximum absorption wavelength of the benzotriazole compound of the first embodiment is measured using a spectrophotometer (for example, Shimadzu Spectrophotometer UV-1600 manufactured by Shimadzu Corporation) at an optical path length of 10 mm using a toluene solution having a concentration of 0.01 g/L.
(§3) In Examples according to the first embodiment, the maximum absorption wavelength and the gram absorption coefficient of the benzotriazole compound were measured using a Shimadzu Spectrophotometer UV-1600 manufactured by Shimadzu Corporation at an optical path length of 10 mm using a toluene solution having a concentration of 0.01 g/L.

[4] = Maximum absorption wavelength and gram absorption coefficient, toluene solution 0.002 g/L (second embodiment); conditions: optical path length 10 mm
Protocol: as §2, with “second” for “first”, “at” for “at an”, “0.002” for “0.01”
as §3, with “second” for “first”, “0.002” for “0.01”

Solubility to various organic solvents: PGMEA ([1]; PGMEA)	Solubility to various organic solvents: Ethyl acetate ([1]; ethyl acetate)	Solubility to various organic solvents: MEK [1]	Solubility to various organic solvents: MMA [1]	Solubility to various organic solvents: Toluene [1]	T-5% by mass [2] [°C]	gram absorption coefficient [3]	maximum absorption [3] [nm]	other results	SMILES
1 % by mass	1 % by mass	1 % by mass	1 % by mass	0.5 % by mass	323.5	7.9×10^4 g/mL·cm	359.0	–	CCCCCCC(=O)Nc1ccc(-n2nc3ccc(Cl)cc3n2)c(O)c1 [Compound (53)]
2 or more % by mass	3 or more % by mass	10 or more % by mass	4 or more % by mass	1 or more % by mass	368.0	7.47×10^4 g/mL·cm	370.0	–	CCCCC(CC)C(=O)Nc1ccc(-n2nc3ccc(Sc4ccccc4)cc3n2)c(O)c1 (stereo not drawn) [Compound (112)]
0.8 % by mass	0.8 % by mass	2 % by mass	1.2 % by mass	0.2 % by mass	312.7	7.48×10^4 g/mL·cm	359.0	–	CCCCC(CC)C(=O)Nc1ccc(-n2nc3ccc(Cl)cc3n2)c(O)c1 (stereo not drawn) [Compound (56)]
–	–	–	–	–	313.1	6.90×10^4 g/mL·cm	371.0	–	CC(C)(C)c1ccc(CSc2ccc3nn(-c4ccc(NC(=O)C5CCCCC5)cc4O)nc3c2)cc1 [Compound (104)]
1 or more % by mass	1 or more % by mass	2.5 or more % by mass	2 or more % by mass	0.5 or more % by mass	365.5	6.98×10^4 g/mL·cm	371.5	–	CCCCC(CC)C(=O)Nc1ccc(-n2nc3ccc(Sc4ccc(C)cc4)cc3n2)c(O)c1 (stereo not drawn) [Compound (113)]
–	–	–	–	–	–	7.28×10^4 g/mL·cm	365.5	–	O=C1CCc2cc(-n3nc4ccc(Cl)cc4n3)c(O)cc2N1 [Compound (105)]
–	–	–	–	–	–	9.76×10^4 g/mL·cm	389.5	–	Oc1cc(NC2CCCCC2)ccc1-n1nc2ccc(Cl)cc2n1 [Compound (4)]
5 or more % by mass	5 % by mass	5 % by mass	5 or more % by mass	2 % by mass	359.4	6.9×10^4 g/mL·cm	371.0	–	CCCCCCC(=O)Nc1ccc(-n2nc3ccc(Sc4ccc(C(C)(C)C)cc4)cc3n2)c(O)c1 [Compound (55)]
–	–	–	–	–	–	–	–	Solubility: MEK ([1]; Table 6): 3≤ % by mass; Solubility: MMA ([1]; Table 6): 3≤ % by mass; Solubility: Toluene ([1]; Table 6): 3≤ % by mass; Decomposition temperature (Tg-5% by mass) [2]: 322.2 °C; gram absorption coefficient [4]: 63500 mL/g/cm; maximum absorption [4]: 368.0 nm	Cc1cc(-n2nc3ccc(SCCOCCSc4ccc5nn(-c6cc(C)cc(C(C)(C)C)c6O)nc5c4)cc3n2)c(O)c(C(C)(C)C)c1 [Compound D2]
–	–	–	–	–	335.7	8.48×10^4 g/mL·cm	359.0	–	O=C(Nc1ccc(-n2nc3ccc(Cl)cc3n2)c(O)c1)C1CCCCC1 [Compound (103)]
0.3 % by mass	0.3 % by mass	1 % by mass	0.5 % by mass	0.3 % by mass	359.7	7.10×10^4 g/mL·cm	371.0	–	CCCCCCCCSc1ccc2nn(-c3ccc(NC(=O)CCCCCC)cc3O)nc2c1 [Compound (54)]
–	–	–	–	–	–	9.77×10^4 g/mL·cm	387	–	CCCCCNc1ccc(-n2nc3ccc(Cl)cc3n2)c(O)c1 [Compound (3)]
1 % by mass	3 % by mass	3 % by mass	5 % by mass	5 or more % by mass	219.2	–	–	Solubility: PGMEA ([1]; Table 6, PGMEA): 1 % by mass; Solubility: EA ([1]; Table 6, ethyl acetate): 3 % by mass; Solubility: MEK ([1]; Table 6): 3 % by mass; Solubility: MMA ([1]; Table 6): 5 % by mass; Solubility: Toluene ([1]; Table 6): 5≤ % by mass; Decomposition temperature (Tg-5% by mass) [2]: 219.2 °C; Decomposition temperature (Tg-5% by mass) ([2]; listed as Comparative Example 1C): lower than that of Examples	Cc1cc(-n2nc3ccc(Cl)cc3n2)c(O)c(C(C)(C)C)c1 [TINUVIN326, 2-(5-chloro-2-benzotriazol)-6-tert-butyl-p-cresol, reference compound]
1 % by mass	1.5 % by mass	3 % by mass	3 % by mass	1 % by mass	366.1	7.02×10^4 g/mL·cm	371.5	–	CCC(C)(C)C(=O)Nc1ccc(-n2nc3ccc(Sc4ccc(C(C)(C)C)cc4)cc3n2)c(O)c1 [Compound (101)]
3 % by mass	5 % by mass	10 % by mass	4 % by mass	1 % by mass	252.6	1.04×10^5 g/mL·cm	378.5	–	CCNc1cc(O)c(-n2nc3ccc(OC)cc3n2)cc1C [Compound (111)]
–	–	–	–	–	–	9.37×10^4 g/mL·cm	360.0	–	O=C(Nc1ccc(-n2nc3ccc(Cl)cc3n2)c(O)c1)c1ccccc1 [Compound (61)]
5 or more % by mass	5 or more % by mass	5 or more % by mass	5 or more % by mass	2 % by mass	309.1	8.40×10^4 g/mL·cm	359.0	–	CCC(C)(C)C(=O)Nc1ccc(-n2nc3ccc(Cl)cc3n2)c(O)c1 [Compound (59)]
–	–	–	–	–	–	5.19×10^4 g/mL·cm	347.0	–	CC(=O)Nc1ccc(-n2nc3ccc(Cl)cc3n2)c(O)c1 [Compound (102)]
2 % by mass	3 % by mass	5 or more % by mass	5 or more % by mass	2 % by mass	374.7	6.61×10^4 g/mL·cm	371.5	–	CCCCC(CC)C(=O)Nc1ccc(-n2nc3ccc(Sc4ccc(C(C)(C)C)cc4)cc3n2)c(O)c1 (stereo not drawn) [Compound (58)]
–	–	–	–	–	–	6.1×10^4 g/mL·cm	355	–	CCCCCCC(=O)N(c1ccccc1)c1ccc(-n2nc3ccc(Cl)cc3n2)c(O)c1 [Compound (22)]
–	–	–	–	–	230.1	1.07×10^5 g/mL·cm	372.5	–	CCN(CC)C(=O)Nc1ccc(-n2nc3ccc(Cl)cc3n2)c(O)c1 [Compound (81)]
